Data: ChEMBL document CHEMBL3868621, “A novel adamantane thiadiazole derivative induces mitochondria-mediated apoptosis in lung carcinoma cell line” (Bioorg Med Chem, 2017)
Activity calls are given as the source filed them. The calls are words filed in the database; no cut-off is given here.

Key:
[1] = Cytotoxicity against HFB4 cells assessed as decrease in cell viability after 24 hrs by MTT assay; format: toxicity, cell-based; details: human
[2] = Cytotoxicity against human A549 cells assessed as decrease in cell viability after 24 hrs by MTT assay; format: functional, cell-based; details: A549, 24 h
[3] = Cytotoxicity against human PC3 cells assessed as decrease in cell viability after 24 hrs by MTT assay; format: functional, cell-based; details: PC-3, 24 h
[4] = Cytotoxicity against human HCT116 cells assessed as decrease in cell viability after 24 hrs by MTT assay; format: functional, cell-based; details: HCT-116, 24 h
[5] = tested on: A549; assay: Induction of morphological changes in human A549 cells assessed as cell surface damage by measuring average roughness value at 0.087 mM after 24 hrs by atomic force microscopic imaging analysis (reference value: 1.11 micrometer); format: functional
[6] = tested on: A549; assay: Effect on Bax expression in human A549 cells assessed as ratio of Bax to beta-actin mRNA level at 0.17 mM by qRT-PCR analysis (reference value: 9.0641); format: functional
[7] = tested on: A549; assay: Induction of apoptosis in human A549 cells at 0.087 to 0.17 mM by annexin V/propidium iodide double staining based flow cytometry; format: functional, cell-based; details: TDE = time-dependent effect
[8] = tested on: A549; assay: Induction of apoptosis in human A549 cells assessed as late apoptotic cells at 0.087 mM after 24 hrs by annexin V/propidium iodide double staining based flow cytometry (reference value: 0.21%); format: functional
[9] = tested on: A549; assay: Induction of morphological changes in human A549 cells assessed as formation of membrane blebs at 0.17 mM after 72 hrs by uranyl acetate/lead citrate staining based transmission electron microscopic imaging analysis; format: functional, cell-based
[10] = tested on: A549; assay: Induction of morphological changes in human A549 cells assessed as nuclear chromatin condensation and margination at 0.17 mM after 72 hrs by uranyl acetate/lead citrate staining based transmission electron microscopic imaging analysis; format: functional, cell-based
[11] = Cell cycle arrest in human A549 cells assessed as accumulation at G2/M phase at 0.087 mM after 24 hrs by propidium iodide staining based flow cytometry (reference value: 26.63%); format: functional
[12] = tested on: A549; assay: Effect on p53 expression in human A549 cells assessed as ratio of p53 to beta-actin mRNA level at 0.17 mM by qRT-PCR analysis (reference value: 10.87); format: functional
[13] = tested on: A549; assay: Induction of morphological changes in human A549 cells assessed as large uplifted structures on cell surface by measuring average particle height at 0.087 mM after 24 hrs by atomic force microscopic imaging analysis (reference value: 0.144 micrometer); format: functional
[14] = tested on: A549; assay: Induction of apoptosis in human A549 cells after 24 to 48 hrs by annexin V/propidium iodide double staining based flow cytometry; format: functional, cell-based
[15] = tested on: A549; assay: Induction of morphological changes in human A549 cells assessed as reduction in nucleus volume at 0.17 mM after 72 hrs by uranyl acetate/lead citrate staining based transmission electron microscopic imaging analysis; format: functional, cell-based
[16] = tested on: A549; assay: Effect on Bcl2 expression in human A549 cells assessed as ratio of Bcl-2 to beta-actin mRNA level at 0.17 mM by qRT-PCR analysis (reference value: 15.0312); format: functional
[17] = tested on: A549; assay: Induction of morphological changes in human A549 cells assessed as large uplifted structures on cell surface by measuring particle width at 0.087 mM after 24 hrs by atomic force microscopic imaging analysis (reference value: 0.147 micrometer); format: functional
[18] = Cell cycle arrest in human A549 cells assessed as accumulation at G0/G1 phase at 0.087 mM after 24 hrs by propidium iodide staining based flow cytometry (reference value: 33.96%); format: functional
[19] = tested on: A549; assay: Induction of morphological changes in human A549 cells assessed as larger uplifted particles on cell surface at 0.087 mM after 24 hrs by atomic force microscopic imaging analysis; format: functional, cell-based
[20] = tested on: A549; assay: Induction of apoptosis in human A549 cells assessed as late apoptotic cells at 0.17 mM after 48 hrs by annexin V/propidium iodide double staining based flow cytometry (reference value: 0.08%); format: functional
[21] = tested on: A549; assay: Induction of apoptosis in human A549 cells assessed as viable cells at 0.087 mM after 24 hrs by annexin V/propidium iodide double staining based flow cytometry (reference value: 98.85%); format: functional; details: A549, 24 h, read-out: Activity
[22] = tested on: A549; assay: Induction of morphological changes in human A549 cells assessed as large uplifted structures on cell surface by measuring particle length at 0.087 mM after 24 hrs by atomic force microscopic imaging analysis (reference value: 0.161 micrometer); format: functional
[23] = Cell cycle arrest in human A549 cells assessed as accumulation at S phase at 0.087 mM after 24 hrs by propidium iodide staining based flow cytometry (reference value: 34.42%); format: functional
[24] = tested on: A549; assay: Induction of apoptosis in human A549 cells assessed as increase in caspase-3 activity at 0.17 mM using Ac-DEVD-pNA as substrate after 48 hrs by colorimetric assay (reference value: 0.005); format: functional
[25] = tested on: A549; assay: Induction of morphological changes in human A549 cells assessed as small membrane protrusions on cell surface at 0.087 mM after 24 hrs by atomic force microscopic imaging analysis; format: functional, cell-based
[26] = tested on: A549; assay: Induction of apoptosis in human A549 cells assessed as early apoptotic cells at 0.17 mM after 48 hrs by annexin V/propidium iodide double staining based flow cytometry (reference value: 1.27%); format: functional
[27] = tested on: A549; assay: Induction of morphological changes in human A549 cells assessed as formation of apoptotic bodies at 0.17 mM after 72 hrs by uranyl acetate/lead citrate staining based transmission electron microscopic imaging analysis; format: functional, cell-based
[28] = tested on: A549; assay: Induction of apoptosis in human A549 cells assessed as necrotic cells at 0.087 mM after 24 hrs by annexin V/propidium iodide double staining based flow cytometry (reference value: 0.02%); format: functional
[29] = tested on: A549; assay: Induction of morphological changes in human A549 cells assessed as increased cellular granularity at 0.17 mM after 72 hrs by uranyl acetate/lead citrate staining based transmission electron microscopic imaging analysis; format: functional, cell-based
[30] = tested on: A549; assay: Induction of apoptosis in human A549 cells assessed as early apoptotic cells at 0.087 mM after 24 hrs by annexin V/propidium iodide double staining based flow cytometry (reference value: 0.91%); format: functional
[31] = tested on: A549; assay: Induction of apoptosis in human A549 cells assessed as viable cells at 0.17 mM after 48 hrs by annexin V/propidium iodide double staining based flow cytometry (reference value: 98.6%); format: functional; details: A549, 48 h, read-out: Activity
[32] = tested on: A549; assay: Induction of morphological changes in human A549 cells assessed as change in mitochondrial number at 0.17 mM after 72 hrs by uranyl acetate/lead citrate staining based transmission electron microscopic imaging analysis; format: functional, cell-based
[33] = tested on: A549; assay: Effect on caspase-3 expression in human A549 cells assessed as ratio of caspase-3 to beta-actin mRNA level at 0.17 mM by qRT-PCR analysis (reference value: 6.398); format: functional
[34] = tested on: A549; assay: Induction of morphological changes in human A549 cells assessed as change in mitochondrial morphology at 0.17 mM after 72 hrs by uranyl acetate/lead citrate staining based transmission electron microscopic imaging analysis; format: functional, cell-based
[35] = tested on: A549; assay: Induction of morphological changes in human A549 cells assessed as cell shrinkage at 0.17 mM after 72 hrs by uranyl acetate/lead citrate staining based transmission electron microscopic imaging analysis; format: functional
[36] = tested on: A549; assay: Induction of apoptosis in human A549 cells assessed as necrotic cells at 0.17 mM after 48 hrs by annexin V/propidium iodide double staining based flow cytometry (reference value: 0%); format: functional

What does the source list for `O=c1[nH]cc(F)c(=O)[nH]1` [FLUOROURACIL]?
IC50 at 24 h [1]: > 5000 µM; IC50 [2]: 2900 µM; IC50 [3]: 1200 µM; IC50 [4]: 2000 µM

With `O=C(Nc1ccccc1)c1nn(-c2ccccc2)/c(=N/NC(=O)C23CC4CC(CC(C4)C2)C3)s1` as the molecule, how does the IC50 at 24 h [1] read?
Its IC50 at 24 h is 218 µM.

What about the Activity [5] of the same molecule?
The Activity was 1.29 um.

What about the Ratio [6] of the same molecule?
The Ratio was 18.781.

And the Activity [7]?
The Activity was “Tde”.

And the Activity [8]?
The Activity was 0.61%.

And the Activity [9]?
Its Activity is “Active”.

And the Activity [10]?
Its Activity is “Active”.

What about the Activity [11] of the same molecule?
The Activity was 1.97%.

And the Ratio [12]?
Its Ratio is 13.73.

What about the Activity [13] of the same molecule?
The Activity was 0.161 um.

And the Activity [14]?
Its Activity is “Dose-dependent effect”.

What about the Activity [15] of the same molecule?
The Activity was “Active”.

And the Ratio [16]?
The Ratio was 8.323.

What about the Activity [17] of the same molecule?
Its Activity is 0.134 um.

What about the Activity [18] of the same molecule?
Its Activity is 29.2%.

And the Activity [19]?
Its Activity is “Active”.

And the Activity [20]?
Its Activity is 0.18%.

And the viability at 87 µM [21]?
The viability at 87 µM was 89%.

What about the Activity [22] of the same molecule?
The Activity was 0.142 um.

What about the IC50 [2] of the same molecule?
The IC50 was 87 µM.

And the Activity [23]?
Its Activity is 68.9%.

And the IC50 [3]?
The IC50 was 163 µM.

What about the OD [24] of the same molecule?
The OD was 0.021.

What about the Activity [25] of the same molecule?
Its Activity is “Active”.

What about the Activity [26] of the same molecule?
Its Activity is 16.2%.

What about the Activity [27] of the same molecule?
The Activity was “Active”.

What about the IC50 [4] of the same molecule?
Its IC50 is 168 µM.

And the Activity [28]?
Its Activity is 0%.

And the Activity [29]?
Its Activity is “Active”.

And the Activity [30]?
The Activity was 10.36%.

And the viability at 170 µM [31]?
The viability at 170 µM was 83.6%.

What about the Activity [32] of the same molecule?
Its Activity is “Active”.

What about the Ratio [33] of the same molecule?
Its Ratio is 12.327.

What about the Activity [34] of the same molecule?
The Activity was “Active”.

What about the Activity [35] of the same molecule?
Its Activity is “Active”.

What about the Activity [36] of the same molecule?
Its Activity is 0%.
